According to ChEMBL document CHEMBL3112483, “Synthesis and cytotoxic activity of MOM-ether analogs of isosteviol” (Bioorg Med Chem Lett, 2014):

What was measured:
[1] = Cytotoxicity against p53 deficient human H1299 cells at 100 uM after 24 hrs by MTT assay; assay type: functional; settings: NCI-H1299, 24 h, read-out: GI
[2] = Cytotoxicity against human NL20 cells at IC50 after 24 hrs by MTT assay; assay type: cell-based; settings: nl20, 24 h
[3] = Cytotoxicity against p53 deficient human H1299 cells after 24 hrs by MTT assay; assay type: functional, cell-based; settings: NCI-H1299, 24 h
NCI-H1299 [4] = test: Induction of apoptosis in human […] cells expressing wild type p53 at IC50 assessed as histone release by ELISA relative to control; assay type: functional
[5] = Induction of apoptosis in human NL20 cells at IC50 assessed as histone release by ELISA relative to control; assay type: cell-based
NCI-H1299 [6] = test: Induction of apoptosis in p53 deficient human H1299 cells at IC50 assessed as histone release by ELISA relative to control; assay type: functional
A549 = test: Cytotoxicity against human A549 cells; assay type: functional, cell-based

SMILES	inhibition of growth at 100 µM [1] [%]	further results
COCO[C@@H]1C[C@]23CC[C@@H]4[C@](C)(COC(=O)NCc5ccc(OC)cc5)CCC[C@@]4(C)[C@@H]2CC[C@@]1(C)C3	89	Activity [2]: 20%; IC50 [3]: 21 µM; fold change (FC) (NCI-H1299 [4]): 2; fold change (FC) [5]: 4; fold change (FC) (NCI-H1299 [6]): 7
C[C@@]12CC[C@@H]3[C@@](CC[C@@H]4[C@](C)(COC(=O)/C=C/C(F)(F)F)CCC[C@]43C)(C[C@H]1O)C2	–	IC50 (A549): 4.1 µM
COCO[C@@H]1C[C@]23CC[C@@H]4[C@](C)(CO)CCC[C@@]4(C)[C@@H]2CC[C@@]1(C)C3	15	–
COCO[C@@H]1C[C@]23CC[C@@H]4[C@](C)(COC(=O)c5ccccc5)CCC[C@@]4(C)[C@@H]2CC[C@@]1(C)C3	8	–
COCO[C@@H]1C[C@]23CC[C@@H]4[C@](C)(COC(C)=O)CCC[C@@]4(C)[C@@H]2CC[C@@]1(C)C3	13	–
CCCCCCCC(=O)OC[C@]1(C)CCC[C@]2(C)[C@@H]1CC[C@@]13C[C@@H](OCOC)[C@@](C)(CC[C@H]12)C3	95	Activity [2]: 20%; IC50 [3]: 14 µM; fold change (FC) (NCI-H1299 [4]): 2; fold change (FC) [5]: 4; fold change (FC) (NCI-H1299 [6]): 10
COCO[C@@H]1C[C@]23CC[C@@H]4[C@](C)(COC(=O)C(C)C)CCC[C@@]4(C)[C@@H]2CC[C@@]1(C)C3	20	–
COCO[C@@H]1C[C@]23CC[C@@H]4[C@](C)(COC(=O)COc5ccccc5)CCC[C@@]4(C)[C@@H]2CC[C@@]1(C)C3	70	–
COCO[C@@H]1C[C@]23CC[C@@H]4[C@](C)(COC(=O)Nc5ccccc5)CCC[C@@]4(C)[C@@H]2CC[C@@]1(C)C3	65	–
COCO[C@@H]1C[C@]23CC[C@@H]4[C@](C)(COC(=O)Nc5ccc(C(C)=O)cc5)CCC[C@@]4(C)[C@@H]2CC[C@@]1(C)C3	60	–
CCCNC(=O)OC[C@]1(C)CCC[C@]2(C)[C@@H]1CC[C@@]13C[C@@H](OCOC)[C@@](C)(CC[C@H]12)C3	20	–
COCO[C@@H]1C[C@]23CC[C@@H]4[C@](C)(COC(=O)NCc5ccccc5)CCC[C@@]4(C)[C@@H]2CC[C@@]1(C)C3	50	–
CCCCCCCC(=O)OC[C@]1(C)CCC[C@]2(C)[C@@H]1CC[C@@]13C[C@@H](O)[C@@](C)(CC[C@H]12)C3	48	–
